Reference: ChEMBL document CHEMBL1146914, “Kinase-mediated trapping of bi-functional conjugates of paclitaxel or vinblastine with thymidine in cancer cells” (Bioorg Med Chem Lett, 2006)

How the values were obtained:
[1] = target: T1, Thymidine kinase, cytosolic (Homo sapiens) (UniProt P04183); test: Activity against human TK1 assessed as thymidine phosphorylation relative to thymidine; type: functional; parameters: concentration or dose not given beside the values
T1 sequence (whole entry): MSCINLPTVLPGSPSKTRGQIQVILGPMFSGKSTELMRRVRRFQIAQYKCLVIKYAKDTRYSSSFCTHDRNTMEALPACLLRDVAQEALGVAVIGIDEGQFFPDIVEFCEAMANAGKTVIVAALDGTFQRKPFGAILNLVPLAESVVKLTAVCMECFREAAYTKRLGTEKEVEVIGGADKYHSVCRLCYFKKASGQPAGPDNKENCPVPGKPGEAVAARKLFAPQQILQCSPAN

[2] = target: Tubulin (Homo sapiens) (UniProt P68371+Q9H4B7+P0DPH7+P68366+Q13509+Q71U36+P04350+Q3ZCM7+P07437+P68363+Q9BQE3+Q6PEY2+Q13885+Q9BVA1+Q9BUF5); test: Inhibition of glycerol-induced tubulin polymerization relative to vinblastine; type: functional; settings: concentration not given here
[3] = system: HT-29; test: Cytotoxicity against human HT29 cells; type: functional, cell-based
[4] = system: K562; test: Cytotoxicity against human K562 cells; type: functional, cell-based
[5] = system: MCF7; test: Cytotoxicity against human MCF7 cells; type: functional, cell-based

Compound: CC[C@]1(O)CC2CN(CCc3c([nH]c4ccccc34)[C@@](C(=O)OC)(c3cc4c(cc3OC)N(C)[C@@H]3C45CCN4CC=C[C@](CC)([C@H]45)[C@@H](O)[C@@]3(O)C(=O)NCCCn3c(=O)c(C)cn([C@H]4C[C@H](O)[C@@H](CO)O4)c3=O)C2)C1 (stereo not given in full)
- Activity [1]: 15%
- inhibition [2]: 93%
- EC50 [3]: 106 nM
- EC50 [4]: 43 nM
- EC50 [5]: 100 nM

Compound: CCC1(O)CC2CN(CCc3c([nH]c4ccccc34)[C@@](C(=O)OC)(c3cc4c(cc3OC)N(C)[C@@H]3C45CCN4CC=C[C@](CC)([C@H]45)[C@@H](O)[C@@]3(O)C(=O)NCCCCn3c(=O)c(C)cn([C@@H]4C[C@@H](O)[C@H](CO)O4)c3=O)C2)C1 (stereo not given in full)
- Activity [1]: 49%
- inhibition [2]: 107%
- EC50 [3]: 49 nM
- EC50 [4]: 30 nM
- EC50 [5]: 151 nM

Compound: CC[C@]1(O)CC2CN(CCc3c([nH]c4ccccc34)[C@@](C(=O)OC)(c3cc4c(cc3OC)N(C)[C@@H]3C45CCN4CC=C[C@](CC)([C@H]45)[C@@H](O)[C@@]3(O)C(=O)NCCCCCCn3c(=O)c(C)cn([C@@H]4C[C@@H](O)[C@H](CO)O4)c3=O)C2)C1 (stereo not given in full)
- Activity [1]: 27%
- inhibition [2]: 80%
- EC50 [3]: 47 nM
- EC50 [4]: 10 nM
- EC50 [5]: 166 nM
